Biological target: T1, DC-SIGN (Homo sapiens, UniProt Q9NNX6)
T1 sequence (Q9NNX6 62-404): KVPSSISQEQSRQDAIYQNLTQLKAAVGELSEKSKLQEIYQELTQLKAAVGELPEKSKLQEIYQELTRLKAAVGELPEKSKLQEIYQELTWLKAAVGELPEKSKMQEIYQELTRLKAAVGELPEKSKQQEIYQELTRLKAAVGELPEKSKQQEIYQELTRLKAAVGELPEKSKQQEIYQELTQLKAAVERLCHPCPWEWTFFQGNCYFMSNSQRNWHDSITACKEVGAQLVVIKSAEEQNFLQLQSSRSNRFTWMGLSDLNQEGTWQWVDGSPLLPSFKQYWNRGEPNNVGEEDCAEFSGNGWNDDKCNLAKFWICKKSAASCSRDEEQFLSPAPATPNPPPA
Experiment: free-glycan inhibition of DC-SIGN binding to HMG microarrays

**Q.** How did the IC50 turn out when `C[C@@H]1O[C@@H](O[C@H]2[C@H](O[C@H]3[C@H](O)[C@@H](O)C(O)O[C@@H]3CO)O[C@H](CO)[C@H](O)[C@@H]2O)[C@@H](O)[C@H](O)[C@@H]1O` (stereo partly shown) [2′-FL, 2′-fucosyllactose] was run?
**A.** Its IC50 is ~1000 µM.

Reference: article PMC4875834 (The Biochemical journal, 2016)
